From US8193189B2, “Quinoxaline derivatives as tyrosine kinase activity inhibitors” (Novartis AG, priority 2007, dated 2012)

Tests used:
GST-JAK1(866-1154) = molecular target: T1, GST-JAK1(866-1154) (Homo sapiens, UniProt P23458); test: EPK JAK-family kinases profiling assay (Caliper mobility shift), JAK1; assay type: biochemical; settings: ATP 40 μM, 50 nM kinase
T1 construct: GST-JAK1(866-1154); made in house
Outline: (§1)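 Turnover was read as substrate/product ratio after mobility-shift capillary-like separation of each reaction, run for 60 min at 30 °C with GST-tagged kinase domain, labelled peptide and ATP, and terminated with EDTA stop buffer.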

GST-JAK2(808-1132) = molecular target: T2, GST-JAK2(808-1132) (Homo sapiens, UniProt O60674); test: EPK JAK-family kinases profiling assay (Caliper mobility shift), JAK2; assay type: biochemical; settings: ATP 20 μM, 1.8 nM kinase
T2 construct: GST-JAK2(808-1132); purchased Invitrogen (Carlsbad, USA) #4288
T2 sequence (O60674 808-1132): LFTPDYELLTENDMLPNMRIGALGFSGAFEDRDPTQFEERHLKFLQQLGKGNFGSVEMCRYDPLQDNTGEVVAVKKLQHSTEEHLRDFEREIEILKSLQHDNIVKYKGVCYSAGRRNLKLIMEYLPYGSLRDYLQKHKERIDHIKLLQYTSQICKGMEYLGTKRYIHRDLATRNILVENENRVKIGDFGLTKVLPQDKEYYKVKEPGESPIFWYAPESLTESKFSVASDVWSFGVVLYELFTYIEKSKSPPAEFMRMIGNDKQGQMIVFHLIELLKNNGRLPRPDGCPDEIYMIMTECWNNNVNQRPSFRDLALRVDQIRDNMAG
Outline: as §1

GST-JAK3(811-1124) = molecular target: T3, GST-JAK3(811-1124) (Homo sapiens, UniProt P52333); test: EPK JAK-family kinases profiling assay (Caliper mobility shift), JAK3; assay type: biochemical; settings: ATP 80 μM, 6 nM kinase
T3 construct: GST-JAK3(811-1124); made in house
T3 sequence (P52333 811-1124): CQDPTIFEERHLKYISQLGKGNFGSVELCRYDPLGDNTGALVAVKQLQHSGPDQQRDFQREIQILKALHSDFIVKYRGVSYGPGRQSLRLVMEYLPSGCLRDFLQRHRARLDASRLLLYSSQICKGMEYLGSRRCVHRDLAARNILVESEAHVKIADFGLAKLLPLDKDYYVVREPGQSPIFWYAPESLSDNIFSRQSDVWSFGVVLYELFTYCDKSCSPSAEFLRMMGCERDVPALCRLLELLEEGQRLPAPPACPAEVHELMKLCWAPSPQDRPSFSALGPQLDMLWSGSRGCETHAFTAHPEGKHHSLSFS
Outline: as §1

GST-TYK2(888-1187) = molecular target: T4, GST-TYK2(888-1187) (Homo sapiens, UniProt P29597); test: EPK JAK-family kinases profiling assay (Caliper mobility shift), TYK2; assay type: biochemical; settings: ATP 30 μM, 40 nM kinase
T4 construct: GST-TYK2(888-1187); made in house
T4 sequence (P29597 888-1187): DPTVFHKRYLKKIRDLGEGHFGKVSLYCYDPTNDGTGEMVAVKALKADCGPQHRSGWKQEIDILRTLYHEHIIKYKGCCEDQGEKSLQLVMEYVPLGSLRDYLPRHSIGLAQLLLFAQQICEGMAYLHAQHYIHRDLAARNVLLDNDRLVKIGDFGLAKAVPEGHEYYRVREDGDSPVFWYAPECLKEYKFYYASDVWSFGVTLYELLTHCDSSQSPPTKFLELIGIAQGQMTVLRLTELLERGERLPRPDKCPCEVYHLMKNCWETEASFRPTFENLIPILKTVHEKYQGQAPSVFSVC
Outline: as §1

[1] = system: JAK/STAT pathway (JAK1/JAK2-dependent nuclear translocation of STAT1-GFP); test: Inhibition of the JAK/STAT pathway: IFN-γ stimulated nuclear translocation of STAT1-GFP in HT1080 fibrosarcoma cells; assay type: cell-based; settings: Homo sapiens, HT-1080; HT1080 STAT1-GFP cells, 100 ng/ml IFN-γ 2 hours, compound added 30 min before; read-out: STAT1translo IC50
Outline: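 HT1080 cells stably expressing STAT1-GFP, compounds added 30 min before IFN-γ stimulation at final 10 μM down to 0.003 μM (0.1% DMSO). Nuclear-cytoplasmic GFP intensity differential quantified by automated imaging with Hoechst nuclear mask, ≥1000 cells per well, averaged per well.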

T1 sequence (P23458 866-1154): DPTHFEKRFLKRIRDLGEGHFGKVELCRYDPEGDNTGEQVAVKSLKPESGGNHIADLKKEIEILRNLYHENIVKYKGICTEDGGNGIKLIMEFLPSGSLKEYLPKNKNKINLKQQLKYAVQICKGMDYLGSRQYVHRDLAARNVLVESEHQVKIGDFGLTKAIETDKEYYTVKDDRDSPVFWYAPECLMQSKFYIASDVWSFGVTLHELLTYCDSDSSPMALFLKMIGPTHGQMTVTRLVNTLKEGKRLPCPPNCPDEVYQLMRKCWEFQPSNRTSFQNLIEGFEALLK

Structure (SMILES) | IC50 (GST-JAK1(866-1154)) [µM] | IC50 (GST-JAK2(808-1132)) [µM] | IC50 (GST-JAK3(811-1124)) [µM] | IC50 (GST-TYK2(888-1187)) [µM] | IC50 [1] [µM]
CN1CCN(c2ccc(-c3cnc4cccc(-c5cc(F)c(CN6CCS(=O)(=O)CC6)c(F)c5)c4n3)cn2)CC1 [Example 108, 8-[4-(1,1-Dioxido-thiomorpholin-4-ylmethyl)-3,5-difluoro-phenyl]-2-[6-(4-methyl-piperazin-1-yl)-pyridin-3-yl]-quinoxaline] | 0.254 | 0.0245 | 2.4 | 0.417 | 0.15
CN(C)CCN(C)C(=O)c1ccc(-c2cnc3cccc(-c4cc(F)c(CN5CCOCC5)c(F)c4)c3n2)cn1 [Example 110, 5-[8-(3,5-Difluoro-4-morpholin-4-ylmethyl-phenyl)-quinoxalin-2-yl]-pyridine-2-carboxylic acid (2-dimethylamino-ethyl)-methyl-amide] | 5.55 | 0.575 | > 10 | 9.3 | 1.59
CN(C)CCN(C)C(=O)c1ccc(-c2cnc3cccc(-c4cc(F)c(CN5CCS(=O)(=O)CC5)c(F)c4)c3n2)cn1 [Example 111, 5-{8-[4-(1,1-Dioxido-thiomorpholin-4-ylmethyl)-3,5-difluoro-phenyl]-quinoxalin-2-yl}-pyridine-2-carboxylic acid (2-dimethylamino-ethyl)-methyl-amide] | 0.92 | 0.105 | 9.3 | 1.7 | 1.23
Cc1cc(-c2cnc3cccc(-c4cc(F)c(CN5CCOCC5)c(F)c4)c3n2)cnc1C(=O)N(C)CCN(C)C [Example 112, 5-[8-(3,5-Difluoro-4-morpholin-4-ylmethyl-phenyl)-quinoxalin-2-yl]-3-methyl-pyridine-2-carboxylic acid (2-dimethylamino-ethyl)-methyl-amide] | 5.35 | 0.32 | > 10 | > 10 | 13.6
Cc1cc(-c2cnc3cccc(-c4cc(F)c(CN5CCS(=O)(=O)CC5)c(F)c4)c3n2)cnc1C(=O)N(C)CCN(C)C [Example 113, 5-{8-[4-(1,1-Dioxido-thiomorpholin-4-ylmethyl)-3,5-difluoro-phenyl]-quinoxalin-2-yl}-3-methyl-pyridine-2-carboxylic acid (2-dimethylamino-ethyl)-methyl-amide] | 0.615 | 0.0285 | 3.3 | 1.15 | 1.94
Cc1cc(-c2cccc3ncc(-c4cnn(CCCN5CCOCC5)c4)nc23)ccc1C(=O)N1CCOCC1 [Example 114, (2-Methyl-4-{3-[1-(3-morpholin-4-yl-propyl)-1H-pyrazol-4-yl]-quinoxalin-5-yl}-phenyl)-morpholin-4-yl-methanone] | 0.25 | 0.0115 | 1.65 | 0.345 | 6.38
COCCn1cc(-c2cnc3cccc(-c4cc(F)c(CN5CCOCC5)c(F)c4)c3n2)cn1 [Example 115, 8-(3,5-Difluoro-4-morpholin-4-ylmethyl-phenyl)-2-[1-(2-methoxy-ethyl)-1H-pyrazol-4-yl]-quinoxaline] | 0.0725 | 0.0093 | 1.6 | 0.48 | 1.44
Fc1cc(-c2cccc3ncc(-c4cnn(C5CCOCC5)c4)nc23)cc(F)c1CN1CCOCC1 [Example 117, 8-(3,5-Difluoro-4-morpholin-4-ylmethyl-phenyl)-2-[1-(tetrahydro-pyran-4-yl)-1H-pyrazol-4-yl]-quinoxaline] | 0.0765 | < 0.003 | 1.03 | 0.125 | 0.06
O=C1CN(Cc2c(F)cc(-c3cccc4ncc(-c5cnn(C6CCOCC6)c5)nc34)cc2F)CCN1 [Example 118, 4-(2,6-Difluoro-4-{3-[1-(tetrahydro-pyran-4-yl)-1H-pyrazol-4-yl]-quinoxalin-5-yl}-benzyl)-piperazin-2-one] | 0.47 | 0.025 | > 10 | 0.955 | 0.36
O=C(c1c(F)cc(-c2cccc3ncc(-c4cnn(C5CCOCC5)c4)nc23)cc1F)N1CCOCC1 [Example 119, (2,6-Difluoro-4-{3-[1-(tetrahydro-pyran-4-yl)-1H-pyrazol-4-yl]-quinoxalin-5-yl}-phenyl)-morpholin-4-yl-methanone] | 0.25 | 0.00985 | 6.4 | 0.28 | 0.34
COCCN1CCC(n2cc(-c3cnc4cccc(-c5cc(F)c(CN6CCOCC6)c(F)c5)c4n3)cn2)CC1 [Example 123, 8-(3,5-Difluoro-4-morpholin-4-ylmethyl-phenyl)-2-{1-[1-(2-methoxy-ethyl)-piperidin-4-yl]-1H-pyrazol-4-yl}-quinoxaline] | 0.135 | 0.005 | 1.95 | 0.17 | 0.18
